Data published in ChEMBL document CHEMBL1201862, “PubChem BioAssay data set” (2004).
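Assay format: 96-well plates, 48-hour exposure. Here, GI50 denotes the concentration required for 50% inhibition of growth.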 Activity calls are given as the source filed them. Cut-off read from the data, not from the text of the source: active = GI50 up to about 1.1 µM and inactive = higher.

Tests used:
Test in all cases: NCI tumour cell line growth inhibition, 48 h
OVCAR-4 = system: OVCAR-4
T47D = system: T47D
SF-539 = system: SF-539
SNB-75 = system: SNB-75
UO-31 = system: UO-31
SK-MEL-28 = system: SK-MEL-28
PC-3 = system: PC-3
ACHN = system: ACHN
MCF7 = system: MCF7
BT-549 = system: BT-549
MDA-MB-231 = system: MDA-MB-231
LOX IMVI = system: LOX IMVI
NCI/ADR-RES = system: NCI/ADR-RES
HCC 2998 = system: HCC 2998
SNB-19 = system: SNB-19
SF-268 = system: SF-268
SW-620 = system: SW-620
SF-295 = system: SF-295
OVCAR-3 = system: OVCAR-3
SK-OV-3 = system: SK-OV-3

Measured: GI50

Cc1nc2ccccc2[nH]/c1=N/Nc1ccccc1
inactive: OVCAR-4 9.66 µM | T47D 2.11 µM | SF-539 44.5 µM | SNB-75 18.1 µM | UO-31 18.8 µM | SK-MEL-28 26.5 µM | PC-3 26.1 µM | ACHN 30.5 µM | MCF7 12.3 µM | BT-549 20.7 µM | MDA-MB-231 28 µM | LOX IMVI 23.3 µM | NCI/ADR-RES 15 µM | HCC 2998 38.9 µM | SNB-19 45.1 µM | SF-268 27.6 µM | SW-620 40.6 µM | SF-295 18.6 µM | OVCAR-3 14 µM

COc1ccc(Nc2nc3cc(C(F)(F)F)ccc3nc2C(=O)O)cc1OC
inactive: OVCAR-4 35.4 µM | T47D 27.7 µM | SF-539 23.3 µM | SNB-75 62.7 µM | UO-31 28.2 µM | SK-MEL-28 47.5 µM | PC-3 36.9 µM | ACHN 26.7 µM | MCF7 45.2 µM | BT-549 26.3 µM | MDA-MB-231 29 µM | LOX IMVI 28.9 µM | NCI/ADR-RES 30.8 µM | HCC 2998 35.7 µM | SNB-19 24 µM | SF-268 42.8 µM | SW-620 47.2 µM | SF-295 10.5 µM | OVCAR-3 17.5 µM

COC1=C(OC)C(=O)C(Cc2c(Cl)nc3n2CCS3)=C(C)C1=O
inactive: OVCAR-4 7.73 µM | T47D 4.13 µM | SK-OV-3 12.6 µM | SF-539 14.6 µM | UO-31 13.7 µM | SK-MEL-28 14.2 µM | PC-3 17.7 µM | ACHN 14.8 µM | MCF7 12.9 µM | BT-549 14.4 µM | MDA-MB-231 4.04 µM | LOX IMVI 6.35 µM | NCI/ADR-RES 12.8 µM | HCC 2998 16.5 µM | SNB-19 16.2 µM | SF-268 17.6 µM | SW-620 18 µM | SF-295 14.8 µM | OVCAR-3 16.7 µM

CC(C1CCCC1=O)C1CCCC1=O (stereo unspecified)
inactive: OVCAR-4 > 100 µM | T47D > 100 µM | SK-OV-3 > 100 µM | SF-539 > 100 µM | SNB-75 > 100 µM | UO-31 > 100 µM | SK-MEL-28 > 100 µM | PC-3 > 100 µM | ACHN > 100 µM | MCF7 > 100 µM | BT-549 > 100 µM | MDA-MB-231 > 100 µM | LOX IMVI > 100 µM | NCI/ADR-RES > 100 µM | HCC 2998 > 100 µM | SNB-19 > 100 µM | SF-268 > 100 µM | SW-620 > 100 µM | SF-295 > 100 µM

O=C1C(Br)=CC2(C=C1Br)CCNC1=C2C(=O)c2[nH]cnc2C1=O
inactive: OVCAR-4 14.5 µM | T47D 15.6 µM | SK-OV-3 21.5 µM | SF-539 18.1 µM | SNB-75 15.6 µM | UO-31 15.9 µM | SK-MEL-28 16.1 µM | PC-3 25.7 µM | ACHN 14.6 µM | MCF7 14.6 µM | BT-549 19.2 µM | MDA-MB-231 15.8 µM | LOX IMVI 13.5 µM | NCI/ADR-RES 21.1 µM | HCC 2998 25.8 µM | SF-268 14.8 µM | SW-620 17.7 µM | SF-295 16.2 µM | OVCAR-3 15.7 µM

Cc1c(-c2ccccc2)cc(O)c2nc3ccccc3n12
inactive: OVCAR-4 9.68 µM | T47D > 100 µM | SF-539 > 100 µM | SNB-75 7.4 µM | UO-31 9.25 µM | SK-MEL-28 > 100 µM | PC-3 31.7 µM | ACHN 21.6 µM | MCF7 57.9 µM | BT-549 12.6 µM | MDA-MB-231 5.61 µM | LOX IMVI 4.99 µM | NCI/ADR-RES 7 µM | HCC 2998 17.8 µM | SNB-19 96.8 µM | SF-268 > 10 µM | SW-620 20.7 µM | SF-295 49.8 µM | OVCAR-3 > 100 µM

Cc1ccc(C)c(COCCOCn2ccc(N)nc2=O)c1
inactive: T47D > 100 µM | SK-OV-3 > 100 µM | SF-539 > 100 µM | SNB-75 > 100 µM | UO-31 > 100 µM | SK-MEL-28 > 100 µM | PC-3 > 100 µM | ACHN > 100 µM | MCF7 > 100 µM | BT-549 > 100 µM | MDA-MB-231 > 100 µM | LOX IMVI > 100 µM | NCI/ADR-RES > 100 µM | HCC 2998 > 100 µM | SNB-19 > 100 µM | SF-268 > 100 µM | SW-620 > 100 µM | SF-295 > 100 µM | OVCAR-3 > 100 µM

O=c1[nH]nc(-c2ccccc2)n1-c1ccncc1
inactive: OVCAR-4 > 100 µM | T47D > 100 µM | SF-539 > 100 µM | SNB-75 > 100 µM | UO-31 > 100 µM | SK-MEL-28 > 100 µM | PC-3 > 100 µM | ACHN > 100 µM | MCF7 > 100 µM | BT-549 > 100 µM | MDA-MB-231 > 100 µM | LOX IMVI > 100 µM | NCI/ADR-RES > 100 µM | HCC 2998 > 100 µM | SNB-19 > 100 µM | SF-268 > 100 µM | SW-620 > 100 µM | SF-295 > 100 µM | OVCAR-3 > 100 µM

C=C(C)C1CC(=O)C(C)=C(O)C1 (stereo unspecified)
inactive: OVCAR-4 > 100 µM | T47D > 100 µM | SK-OV-3 > 100 µM | SF-539 > 100 µM | SNB-75 > 100 µM | UO-31 > 100 µM | SK-MEL-28 > 100 µM | PC-3 > 100 µM | ACHN > 100 µM | MCF7 > 100 µM | BT-549 > 100 µM | MDA-MB-231 > 100 µM | LOX IMVI > 100 µM | NCI/ADR-RES > 100 µM | HCC 2998 > 100 µM | SNB-19 > 100 µM | SF-268 > 100 µM | SW-620 > 100 µM | SF-295 > 100 µM

CC(C)(Cc1ccccc1)NC1=NCCO1
inactive: OVCAR-4 > 100 µM | T47D > 10 µM | SK-OV-3 > 100 µM | SF-539 > 100 µM | SNB-75 35.2 µM | UO-31 > 100 µM | SK-MEL-28 > 100 µM | PC-3 > 100 µM | ACHN > 100 µM | MCF7 > 100 µM | BT-549 > 100 µM | MDA-MB-231 > 100 µM | LOX IMVI > 100 µM | NCI/ADR-RES > 100 µM | HCC 2998 > 100 µM | SNB-19 > 100 µM | SW-620 > 100 µM | SF-295 > 100 µM | OVCAR-3 > 100 µM

CC[C@H]1CN(C)[C@H]2Cc3c([nH]c4ccccc34)C(=O)C[C@H]1C2C(=O)OC (stereo partly specified)
inactive: OVCAR-4 > 100 µM | T47D > 100 µM | SK-OV-3 > 100 µM | SF-539 > 100 µM | UO-31 > 100 µM | SK-MEL-28 > 100 µM | PC-3 > 100 µM | ACHN > 100 µM | MCF7 > 100 µM | BT-549 > 100 µM | MDA-MB-231 > 100 µM | LOX IMVI > 100 µM | NCI/ADR-RES > 100 µM | HCC 2998 > 100 µM | SNB-19 > 100 µM | SF-268 > 100 µM | SW-620 > 100 µM | SF-295 > 100 µM | OVCAR-3 > 100 µM

FC(F)(F)c1ccc2c(c1)nc(-c1ccc(Cl)cc1)n2CC1CCCN2CCCCC12 (stereo unspecified)
inactive: OVCAR-4 15.8 µM | T47D 16.7 µM | SK-OV-3 6.7 µM | SF-539 14.8 µM | SNB-75 6.84 µM | UO-31 10.7 µM | SK-MEL-28 14.9 µM | PC-3 11.6 µM | ACHN 14.8 µM | MCF7 14.5 µM | BT-549 14.4 µM | MDA-MB-231 7.33 µM | LOX IMVI 14.3 µM | NCI/ADR-RES 14.8 µM | HCC 2998 13.5 µM | SNB-19 17.1 µM | SF-268 14 µM | SW-620 18.5 µM | SF-295 16.7 µM | OVCAR-3 18.4 µM

NP(=O)(Oc1c2occc2cc2ccc(=O)oc12)N(CCCl)CCCl (stereo unspecified)
inactive: OVCAR-4 > 100 µM | T47D 48.5 µM | SF-539 > 100 µM | UO-31 > 100 µM | SK-MEL-28 > 100 µM | PC-3 > 100 µM | ACHN 83.2 µM | MCF7 51.1 µM | BT-549 > 100 µM | MDA-MB-231 > 100 µM | LOX IMVI 37.6 µM | NCI/ADR-RES > 100 µM | HCC 2998 > 100 µM | SNB-19 > 100 µM | SF-268 58.2 µM | SW-620 > 100 µM | SF-295 > 100 µM | OVCAR-3 > 100 µM

CCOC(=O)CNC(=O)C(CSC(=O)N(O)c1ccc(Br)cc1)NC(=O)CCC(N)C(=O)OCC (stereo unspecified)
inactive: OVCAR-4 > 50 µM | T47D > 50 µM | SK-OV-3 > 50 µM | SF-539 > 50 µM | UO-31 > 50 µM | SK-MEL-28 > 50 µM | PC-3 > 50 µM | ACHN > 50 µM | MCF7 > 50 µM | BT-549 > 50 µM | MDA-MB-231 > 50 µM | LOX IMVI 40.1 µM | NCI/ADR-RES > 50 µM | HCC 2998 > 50 µM | SNB-19 > 50 µM | SF-268 > 50 µM | SW-620 45.1 µM | SF-295 > 50 µM | OVCAR-3 > 50 µM
